Measurements from patent publication US8106055B2, “Substituted amide compounds” (Gruenenthal GmbH, priority 2007, dated 2012).
Like-named read-outs stand apart in the source and are kept apart here.

Experiments:
human μ opiate receptor = biological target: T1, human μ opiate receptor (Homo sapiens, UniProt P35372); experiment: Affinity for the human μ opiate receptor ([3H]-naloxone displacement, CHO-K1 receptor membrane preparation, SPA); format: binding; conditions: test concentration of 1 μM; for inhibition at 1 µM: read-out: μ (binding on the μ opioid receptor, % inhibition)
T1 construct: purchased PerkinElmer Life Sciences, Zaventem, Belgium RB-HOM; host or cells: CHO-K1 cells (membrane preparation)
T1 sequence (P35372 whole entry): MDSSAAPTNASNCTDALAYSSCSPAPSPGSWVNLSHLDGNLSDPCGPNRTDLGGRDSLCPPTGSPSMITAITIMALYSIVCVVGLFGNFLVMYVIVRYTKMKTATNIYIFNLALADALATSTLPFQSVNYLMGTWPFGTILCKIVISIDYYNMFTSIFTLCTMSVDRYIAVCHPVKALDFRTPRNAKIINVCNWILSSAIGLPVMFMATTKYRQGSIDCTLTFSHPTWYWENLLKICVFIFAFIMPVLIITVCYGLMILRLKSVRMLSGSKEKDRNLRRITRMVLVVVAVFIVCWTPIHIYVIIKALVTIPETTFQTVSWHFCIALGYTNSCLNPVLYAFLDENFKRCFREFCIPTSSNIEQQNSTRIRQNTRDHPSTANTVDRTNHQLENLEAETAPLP
Outline: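 SPA, CHO-K1 hμ membranes; 1 nmol/l [3H]-naloxone; Tris-HCl 50 mmol/l + 0.06% BSA; 90 min RT; NSB with 100 μmol/l naloxone; β-counting. Readout: % inhibition of specific binding at 1 μM test compound.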

[1] = biological target: T2, serotonin (5-HT) reuptake (Rattus norvegicus, UniProt P31652); experiment: Inhibition of serotonin (5HT) reuptake in synaptosomes from rat brain; format: biochemical; conditions: test concentration of 10 μM; for inhibition at 10 µM: read-out: 5-HT (inhibition of reuptake of serotonin, % inhibition)
T2 construct: synaptosomes are freshly isolated from areas of the rat brain; from tissue; host or cells: rat brain synaptosomes (P2 fraction)
T2 sequence (P31652 whole entry): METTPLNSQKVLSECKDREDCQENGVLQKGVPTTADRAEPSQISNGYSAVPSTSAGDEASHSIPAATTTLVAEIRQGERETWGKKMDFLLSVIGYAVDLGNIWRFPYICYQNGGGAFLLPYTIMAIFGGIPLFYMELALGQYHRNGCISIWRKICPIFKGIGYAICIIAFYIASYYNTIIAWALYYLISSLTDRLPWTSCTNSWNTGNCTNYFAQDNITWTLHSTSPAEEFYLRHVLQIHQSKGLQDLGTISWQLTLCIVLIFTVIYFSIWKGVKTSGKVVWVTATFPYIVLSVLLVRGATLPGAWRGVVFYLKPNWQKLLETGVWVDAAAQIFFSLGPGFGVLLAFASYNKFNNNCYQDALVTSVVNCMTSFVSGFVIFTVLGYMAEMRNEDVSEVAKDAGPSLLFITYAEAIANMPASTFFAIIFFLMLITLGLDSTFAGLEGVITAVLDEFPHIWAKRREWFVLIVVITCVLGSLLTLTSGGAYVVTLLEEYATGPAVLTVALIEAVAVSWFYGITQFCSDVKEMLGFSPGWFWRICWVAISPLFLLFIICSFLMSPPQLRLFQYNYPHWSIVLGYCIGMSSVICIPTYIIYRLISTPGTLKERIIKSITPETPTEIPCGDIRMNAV
Experimental: Binding data of the compounds on the μ opioid receptor and data on the inhibition of reuptake of serotonin (5-HT) are given in Table 1. The data for the μ receptor were measured at a test concentration of 1 μM, and those for the serotonin reuptake at 10 μM. The values are stated in % inhibition.
Inhibition of Serotonin (5HT) Reuptake
In order to be able to carry out these in vitro studies, synaptosomes are freshly isolated from areas of the rat brain. In each case a so-called “P2” fraction prepared in accordance with the instructions of Gray and Whittaker (E. G. Gray and V. P. Whittaker (1962) J. Anat. 76, 79-88) is prepared. For the NA uptake, these vesicular particles are isolated from the hypothalamus of male rat brains.
A detailed description of the method can be found in the literature (M. Ch. Frink, H.-H. Hennies, W. Englberger, M. Haurand and B. Wilffert (1996) Arzneim.-Forsch./Drug Res. 46 (III), 11, 1029-1036).

[2] = biological target: T3, human bradykinin 1 receptor (B1R) (Homo sapiens, UniProt P46663); experiment: Functional investigation on the human bradykinin 1 receptor (B1R), Ca2+ FLIPR assay in CHO K1 hB1R cells; format: cell-based
T3 construct: expressed in transfected cells; host or cells: CHO K1 cells
T3 sequence (P46663 1-353): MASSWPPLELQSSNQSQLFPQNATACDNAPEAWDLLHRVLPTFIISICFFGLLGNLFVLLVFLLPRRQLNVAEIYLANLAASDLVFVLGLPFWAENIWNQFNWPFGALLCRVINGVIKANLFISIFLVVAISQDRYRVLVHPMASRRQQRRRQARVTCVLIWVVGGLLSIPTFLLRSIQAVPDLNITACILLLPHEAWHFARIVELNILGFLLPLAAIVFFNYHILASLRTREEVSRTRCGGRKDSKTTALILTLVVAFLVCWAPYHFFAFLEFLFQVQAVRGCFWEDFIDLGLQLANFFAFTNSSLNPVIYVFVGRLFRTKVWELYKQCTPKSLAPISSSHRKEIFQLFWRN
Outline: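 Peak Ca2+-dependent fluorescence in B1R-transfected CHO K1 cells measures antagonism of an EC80 agonist challenge given 10-20 min after compound. Agonist is Lys-Des-Arg9-bradykinin for human, Des-Arg9-bradykinin for rat receptor.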

[3] = CHO-K1, B1R antagonism human, test substance 10 μM, Ca2+ FLIPR, CHO K1 hB1R cells, read-out: B1R Ant. h [10 μM] % Inhibition
[4] = CHO-K1, read-out: B1R Ant. h [10 μM] % Inhibition

Row | Structure (SMILES) | inhibition at 1 µM (human μ opiate receptor) [%] | inhibition at 10 µM [1] [%] | inhibition at 10 µM [2, 3] [%] | μ (binding on the μ opioid receptor, % inhibition) (human μ opiate receptor) [%] | 5-HT (inhibition of reuptake of serotonin, % inhibition) [1] [%] | further results
1 | COc1ccc(S(=O)(=O)N2CCCCC2CCOCC(=O)NC2CCC(C(c3ccccc3)N(C)C)CC2)cc1 (centres unmarked) [Example 3, N-(4-((dimethylamino)(phenyl)methyl)cyclohexyl)-2-(2-(1-(4-methoxyphenylsulfonyl)piperidin-2-yl)ethoxy)acetamide] | 99 | 92 | 69 |  |  | 
2 | CN(C)C(c1ccccc1)C1CCC(NC(=O)COCC2CCCCN2S(=O)(=O)c2cccc(Cl)c2Cl)CC1 (centres unmarked) [Example 24, 2-((1-(2,3-dichlorophenylsulfonyl)piperidin-2-yl)methoxy)-N-(4-((dimethylamino)(phenyl)methyl)cyclohexyl)acetamide] | 97 | 67 | 99 |  |  | 
3 | COc1cc(C)c(S(=O)(=O)N(C)CCOCC(=O)NCC2CCC(C(c3ccccc3)N(C)C)CC2)c(C)c1C (centres unmarked) [Example 40, N-((4-((dimethylamino)(phenyl)methyl)cyclohexyl)methyl)-2-(2-(4-methoxy-N,2,3,6-tetramethylphenylsulfonamido)ethoxy)acetamide] | 96 | 84 | 99 |  |  | 
4 | CN(C)C(c1ccccc1)C1CCC(NC(=O)COCCN(Cc2ccccc2)S(=O)(=O)c2ccccc2)CC1 (centres unmarked) [Example 51, 2-(2-(N-benzylphenylsulfonamido)ethoxy)-N-(4-((dimethylamino)(phenyl)methyl)cyclohexyl)acetamide] | 95 | 88 |  |  |  | inhibition at 10 µM [2, 4]: 9%
5 | CN(C)C(c1ccccc1)C1CCC(NC(=O)COCC2CCCCN2S(=O)(=O)c2ccc(Cl)cc2)CC1 (centres unmarked) [Example 95, 2-((1-(4-chlorophenylsulfonyl)piperidin-2-yl)methoxy)-N-(4-((dimethylamino)(phenyl)methyl)cyclohexyl)acetamide] | 91 | 84 | 22 |  |  | 
6 | CC(Oc1ccccc1)C(=O)NCC1CCC(C(c2cccc(F)c2)N(C)C)CC1 (centres unmarked) [Example 108, N-((4-((dimethylamino)(3-fluorophenyl)methyl)cyclohexyl)methyl)-2-phenoxypropanamide] | 91 | 63 |  |  |  | 
7 | CN(C)C(c1ccccc1)C1CCC(NC(=O)COC2CCCN(S(=O)(=O)c3ccccc3)C2)CC1 (centres unmarked) [Example 109, N-(4-((dimethylamino)(phenyl)methyl)cyclohexyl)-2-(1-(phenylsulfonyl)piperidin-3-yloxy)acetamide] | 89 | 87 | 26 |  |  | 
8 | CN(C)C(c1ccccc1)C1CCC(NC(=O)COCCC2CCN(S(=O)(=O)c3ccccc3)CC2)CC1 (centres unmarked) [Example 124, N-(4-((dimethylamino)(phenyl)methyl)cyclohexyl)-2-(2-(1-(phenylsulfonyl)piperidin-4-yl)ethoxy)acetamide] | 87 | 89 | 9 |  |  | 
9 | COc1ccc(S(=O)(=O)N2CCCCC2COCC(=O)NC2CCC(C(c3ccccc3)N(C)C)CC2)cc1 (centres unmarked) [Example 154, N-(4-((dimethylamino)(phenyl)methyl)cyclohexyl)-2-((1-(4-methoxyphenylsulfonyl)piperidin-2-yl)methoxy)acetamide] | 83 | 90 |  |  |  | inhibition at 10 µM [2, 4]: 69%
10 | COc1cc(C)c(S(=O)(=O)N(C)CCOCC(=O)NC2CCC(C(c3cccc(F)c3)N(C)C)CC2)c(C)c1C (centres unmarked) [Example 159, N-(4-((dimethylamino)(3-fluorophenyl)methyl)cyclohexyl)-2-(2-(4-methoxy-N,2,3,6-tetramethylphenylsulfonamido)ethoxy)acetamide] | 85 | 72 | 91 |  |  | 
11 | COc1cc(C)c(S(=O)(=O)N(C)CCOCC(=O)NCC2CCC(C(c3cccc(F)c3)N(C)C)CC2)c(C)c1C (centres unmarked) [Example 160, N-((4-((dimethylamino)(3-fluorophenyl)methyl)cyclohexyl)methyl)-2-(2-(4-methoxy-N,2,3,6-tetramethylphenylsulfonamido)ethoxy)acetamide] | 88 | 80 | 98 |  |  | 
12 | CN(C)C(c1ccccc1)C1CCC(NC(=O)COc2ccccc2N(C)S(=O)(=O)c2ccc(Cl)c(Cl)c2)CC1 (centres unmarked) [Example 166, 2-(2-(3,4-dichloro-N-methylphenylsulfonamido)phenoxy)-N-(4-((dimethylamino)(phenyl)methyl)cyclohexyl)acetamide] | 87 | 91 | 74 |  |  | 
13 | CC(Oc1ccccc1)C(=O)NCC1CCC(C(c2ccc(F)cc2)N(C)C)CC1 (centres unmarked) [Example 236] |  |  |  | 81 | 63 | 
14 | CN(C)C(c1ccccc1)C1CCC(NC(=O)COCc2ccccc2)CC1 (centres unmarked) [Example 245] |  |  |  | 80 | 59 | 
15 | CC(Oc1ccccc1)C(=O)NCCC1CCC(C(c2ccccc2)N(C)C)CC1 (centres unmarked) [Example 270] |  |  |  | 77 | 73 | 
16 | CC(Oc1ccccc1)C(=O)NCCC1CCC(C(c2cccs2)N(C)C)CC1 (centres unmarked) [Example 315] |  |  |  | 72 | 61 | 
17 | CN(C)C(c1ccccc1)C1CCC(NC(=O)COc2ccc(Cl)cc2)CC1 (centres unmarked) [Example 316] |  |  |  | 72 | 59 | 
18 | CN(C)C(c1cccc(F)c1)C1CCC(NC(=O)COCc2ccccc2)CC1 (centres unmarked) [Example 353] |  |  |  | 67 | 60 | 
19 | CC(=O)OC(C(=O)NCC1CCC(C(c2ccc(Cl)cc2)N(C)C)CC1)c1ccccc1 (centres unmarked) [Example 360] |  |  |  | 66 | 15 | 
20 | CCOC(=O)C(=O)NCC1CCC(C(CCc2ccccc2)N(C)C)CC1 (centres unmarked) [Example 421] |  |  |  | 57 | 26 | 
21 | CC(Oc1ccccc1)C(=O)NCCC1CCC(C(c2ccc(F)cc2)N(C)C)CC1 (centres unmarked) [Example 455] |  |  |  | 51 | 74 | 
22 | CN(C)C(c1ccc(Cl)cc1)C1CCC(CCNC(=O)COCc2ccccc2)CC1 (centres unmarked) [Example 482] |  |  |  | 47 | 55 | 
23 | CC(Oc1ccccc1)C(=O)NCC1CCC(C(CCc2ccccc2)N(C)C)CC1 (centres unmarked) [Example 495] |  |  |  | 44 | 48 | 
24 | CN(C)C(c1cccc(F)c1)C1CCC(NC(=O)COc2ccc(Cl)cc2)CC1 (centres unmarked) [Example 505] |  |  |  | 42 | 59 | 
25 | CN(C)C(c1ccc(F)cc1)C1CCC(NC(=O)COCc2ccccc2)CC1 (centres unmarked) [Example 529] |  |  |  | 37 | 59 | 
26 | CC(Oc1ccccc1)C(=O)NC1CCC(C(CCc2ccccc2)N(C)C)CC1 (centres unmarked) [Example 545] |  |  |  |  |  | μ (binding on the μ opioid receptor, % inhibition) (human μ opiate receptor; 1 µM): 30%; 5-HT (inhibition of reuptake of serotonin, % inhibition) ([1]; 10 µM): 52%
27 | CN(C)C(CCc1ccccc1)C1CCC(NC(=O)COc2ccc(Cl)cc2)CC1 (centres unmarked) [Example 564] |  |  |  | 24 | 47 | 
28 | CC(Oc1ccccc1)C(=O)NC1CCC(C(CCc2ccccc2)N(C)C)CC1 (centres unmarked) [Example 577] |  |  |  |  |  | μ (binding on the μ opioid receptor, % inhibition) (human μ opiate receptor; 1 µM): 14%; 5-HT (inhibition of reuptake of serotonin, % inhibition) ([1]; 10 µM): 16%
29 | COC(=O)C(=O)NCCC1CCC(C(c2ccccc2)N(C)C)CC1 (centres unmarked) [Example 579] |  |  |  | 11 | 59 | 
30 | CN(C)C(CCc1ccccc1)C1CCC(NC(=O)COCc2ccccc2)CC1 (centres unmarked) [Example 582] |  |  |  | 9 | 75 | 
